In ChEMBL document CHEMBL5543084, “Development of cannabidiol derivatives as potent broad-spectrum antibacterial agents with membrane-disruptive mechanism” (Eur J Med Chem, 2024):
Values after ≈ are worked out from the molar mass of the structure shown. Active and inactive are the calls of the source. The rule behind the calls is not given here.

Legend:
Acinetobacter baumannii [1] = experiment: Antibacterial activity against Acinetobacter baumannii R2889 assessed as inhibition of bacterial growth incubated for 24 hrs by broth dilution method; format: functional
Escherichia coli [2] = experiment: Antibacterial activity against Escherichia coli ATCC 25922 assessed as inhibition of bacterial growth incubated for 24 hrs in presence of 19 uM Zn2+ by broth dilution method; format: functional
Staphylococcus aureus [3] = experiment: Bactericidal activity against methicillin-resistant Staphylococcus aureus NCTC 10442 assessed as bacterial killing at 8 time of MIC concentration incubated for 1 hr by time-kill assay relative to control; format: functional
Cell membrane [4] = experiment: Induction of outer membrane permeabilization in Pseudomonas aeruginosa ATCC 9027 assessed as increase in fluorescence intensity at 1 to 8 times MIC concentration by NPN-dye based fluorescence analysis; format: cell membranes
Pseudomonas aeruginosa = experiment: In vivo antibacterial activity against Pseudomonas aeruginosa ATCC 9027 infected C57BL6 mouse corneal infection model assessed as reduction in bacterial burden at 3 mg/ml, TOP 4 times in a day for 2 consecutive days; format: functional; conditions: time 2 day
Escherichia coli [5] = experiment: Bactericidal activity against Escherichia coli ATCC 25922 assessed as change in metabolic stress associated gene expression by measuring down-regulation of gale (DX983_RS06370) gene expression at 4 times of MIC concentration measured after 90 mins incubation; format: functional, organism-based
Staphylococcus aureus [6] = experiment: Bactericidal activity against methicillin-resistant Staphylococcus aureus NCTC 10442 assessed as bacterial killing at 4 time of MIC concentration incubated for 2 hrs by time-kill assay; format: functional
Staphylococcus aureus [7] = experiment: Antibacterial activity against Staphylococcus aureus ATCC 29213 assessed as inhibition of bacterial growth incubated for 24 hrs in presence of 140 mM Na+ by broth dilution method; format: functional
Staphylococcus aureus [8] = experiment: Bactericidal activity against methicillin-resistant Staphylococcus aureus NCTC 10442 assessed as up regulation of alanine/aspartate and glutamate metabolism gene expression at 4 times of MIC concentration measured after 90 mins incubation by RNA sequencing (RNA-seq) study; format: functional, organism-based
Staphylococcus aureus [9] = experiment: (§1) Bactericidal activity against methicillin-resistant Staphylococcus aureus NCTC 10442 assessed as up-regulation of molecular functions related gene expression by measuring glutamate-ammonia ligase activity (GO:0004356) at 4 times of MIC concentration measured after 90 mins incubation by RNA sequencing (RNA-seq) study; format: functional, organism-based
Escherichia coli [10] = experiment: (§2) Bactericidal activity against Escherichia coli ATCC 25922 assessed as change in cell death associated gene expression by measuring down-regulation of CDPglycerol glycero-phosphotransferase (D1792_RS11350) gene expression at 4 times of MIC concentration measured after 90 mins incubation by RNA sequencing (RNA-seq) study; format: functional, organism-based
Escherichia coli [11] = experiment: Bactericidal activity against Escherichia coli ATCC 25922 assessed as down regulation of phenylalanine metabolism gene expression at 4 times of MIC concentration measured after 90 mins incubation by RNA sequencing (RNA-seq) study; format: functional, organism-based
Escherichia coli [12] = experiment: Antibacterial activity against Escherichia coli ATCC 25922 assessed as inhibition of bacterial growth incubated for 24 hrs in presence of 20 uM Fe3+ by broth dilution method; format: functional
Escherichia coli [13] = experiment: Antibacterial activity against Escherichia coli ATCC 25922 assessed as inhibition of bacterial growth incubated for 24 hrs in presence of 140 mM Na+ by broth dilution method; format: functional
Staphylococcus aureus [14] = experiment: In vivo antibacterial activity against Staphylococcus aureus ATCC 29213 infected C57BL6 mouse corneal infection model assessed as reduction in bacterial burden at 3 mg/ml, TOP 4 times in a day for 3 consecutive days; format: functional; conditions: time 3 day
Lipoteichoic acid = experiment: Displacement of BODIPY-TR-cadaverine from Bacillus subtilis lipoteichoic acid (LTA) assessed as increase in fluorescence intensity at 2 times MIC measured after 30 mins by fluorescence spectrophotometric analysis
Staphylococcus aureus [15] = experiment: Bactericidal activity against methicillin-resistant Staphylococcus aureus NCTC 10442 assessed as down regulation of other glycan degradation gene expression at 4 times of MIC concentration measured after 90 mins incubation by RNA sequencing (RNA-seq) study; format: functional, organism-based
[16] = Cytotoxicity against mouse fibroblast NCTC clone 929 cells assessed as viable cells at 25 microg/ml incubated for 24 hrs by CCK-8 assay; format: toxicity, cell-based; conditions: NCTC clone 929 (L929) fibroblast cells, at 25 µg/mL, read-out: Activity
Escherichia coli [17] = experiment: as §2, with “the inner membrane protein-coding gene (yqiJ, D1792_RS11855)” for “CDPglycerol glycero-phosphotransferase (D1792_RS11350)”; format: functional, organism-based
Cell membrane [18] = experiment: Induction of outer membrane permeabilization in Escherichia coli ATCC 25922 assessed as increase in fluorescence intensity at 1 to 8 times MIC concentration by NPN-dye based fluorescence analysis; format: cell membranes
Staphylococcus aureus [19] = experiment: (§3) Bactericidal activity against methicillin-resistant Staphylococcus aureus NCTC 10442 assessed as down-regulation of biological processes related gene expression by measuring glutamate metabolic process (GO:0006536) at 4 times of MIC concentration measured after 90 mins incubation by RNA sequencing (RNA-seq) study; format: functional, organism-based
Staphylococcus aureus [20] = experiment: Bactericidal activity against methicillin-resistant Staphylococcus aureus NCTC 10442 assessed as up regulation of phosphonate and phosphinate metabolism gene expression at 4 times of MIC concentration measured after 90 mins incubation by RNA sequencing (RNA-seq) study; format: functional, organism-based
[21] = Toxicity in C57BL6 mouse assessed as corneal damage treated in eyeballs 4 times in a day for 3 consecutive days; conditions: in vivo, topical_or_ocular
[22] = Cytotoxicity against mouse fibroblast NCTC clone 929 cells assessed as viable cells at 3.125 microg/ml incubated for 24 hrs by CCK-8 assay; format: toxicity, cell-based; conditions: NCTC clone 929 (L929) fibroblast cells, at 3.125 µg/mL, read-out: Activity
Escherichia coli [23] = experiment: Antibacterial activity against Escherichia coli ATCC 25922 assessed as inhibition of bacterial growth incubated for 24 hrs by broth dilution method; format: functional
[24] = Cytotoxicity against human HepG2 cells assessed as viable cells at 25 microg/ml incubated for 24 hrs by CCK-8 assay; format: toxicity, cell-based; conditions: at 25 µg/mL, read-out: Activity
[25] = Hemolytic activity against rabbit blood cells incubated for 1 hr relative to control; format: toxicity, cell-based, Oryctolagus cuniculus, Erythrocyte; conditions: rabbit blood cells (erythrocytes)
Acinetobacter baumannii [26] = experiment: Antibacterial activity against Acinetobacter baumannii ATCC 17978 assessed as inhibition of bacterial growth incubated for 24 hrs by broth dilution method; format: functional
Staphylococcus aureus [27] = experiment: Antibacterial activity against methicillin-resistant Staphylococcus aureus NCTC 10442 assessed as inhibition of bacterial growth incubated for 24 hrs in presence of 20 uM Fe3+ by broth dilution method; format: functional
Escherichia coli [28] = experiment: Bactericidal activity against Escherichia coli ATCC 25922 assessed as down-regulation of galactose metabolic process (GO:0006012) at 4 times of MIC concentration measured after 90 mins incubation by RNA sequencing (RNA-seq) study; format: functional, organism-based
Klebsiella pneumoniae [29] = experiment: Antibacterial activity against Klebsiella pneumoniae ATCC 10031 assessed as inhibition of bacterial growth incubated for 24 hrs by broth dilution method; format: functional
Staphylococcus aureus [30] = experiment: as §3, with “pyrimidine ribonucleoside monophosphate” for “glutamate”, “(GO:0009173)” for “process (GO:0006536)”; format: functional, organism-based
Klebsiella pneumoniae [31] = experiment: Antibacterial activity against Klebsiella pneumoniae ATCC 10031 assessed as inhibition of bacterial growth incubated for 24 hrs in presence of 140 mM Na+ by broth dilution method; format: functional
Staphylococcus aureus [32] = experiment: as §1, with “aminoacyl-tRNA hydrolase” for “glutamate-ammonia ligase”, “(GO:0004045)” for “(GO:0004356)”; format: functional, organism-based

In the case of `C=C(C)[C@@H]1CCC(C)=C[C@H]1c1c(OCCCNC(=N)N)cc(CCCCC)cc1OCCCNC(=N)N`, the MIC (Acinetobacter baumannii [1]) is reported as 3.12 µg/mL (≈ 6.09 µM), the MIC (Escherichia coli [2]) is reported as 0.78 µg/mL and the “inhibition (INH)” value (Staphylococcus aureus [3]) is reported as 100%. The Activity (Cell membrane [4]) was “Dose-Dependent Effect”, the Activity (Pseudomonas aeruginosa) was 6.41 log10FFU/ml and the Activity (Escherichia coli [5]) was “Active”. For the same compound, the “inhibition (INH)” value (Staphylococcus aureus [6]) was 99.9%, the MIC (Staphylococcus aureus [7]) was 0.78 µg/mL and the Activity (Staphylococcus aureus [8]) was “Active”. The Activity (Staphylococcus aureus [9]) was “Active”, the Activity (Escherichia coli [10]) was “Active” and the Activity (Escherichia coli [11]) was “Active”. For the same compound, the MIC (Escherichia coli [12]) was 1.56 µg/mL, the MIC (Escherichia coli [13]) was 3.12 µg/mL and the Activity (Staphylococcus aureus [14]) was 6.99 log10FFU/ml. The Activity (Lipoteichoic acid) was 19.8%, the Activity (Staphylococcus aureus [15]) was “Active” and the viability at 24 h, 25 microg/ml [16] was 68.7%. For the same compound, the Activity (Escherichia coli [17]) was “Active”, the Activity (Cell membrane [18]) was “Dose-Dependent Effect” and the Activity (Staphylococcus aureus [19]) was “Active”. The Activity (Staphylococcus aureus [20]) was “Active”, the Activity [21] was “Non-Toxic” and the viability at 24 h, 3.125 microg/ml [22] was 92.3%. For the same compound, the MIC (Escherichia coli [23]) was 3.12 µg/mL (≈ 6.09 µM), the viability at 24 h, 25 microg/ml [24] was 92.9% and the HC50 at 1 h [25] was > 200 µg/mL. For the same compound, the MIC (Acinetobacter baumannii [26]) was 3.12 µg/mL (≈ 6.09 µM), the MIC (Staphylococcus aureus [27]) was 0.39 µg/mL and the Activity (Escherichia coli [28]) was “Active”. The MIC (Klebsiella pneumoniae [29]) was 1.56 µg/mL (≈ 3.04 µM), the Activity (Staphylococcus aureus [30]) was “Active” and the MIC (Klebsiella pneumoniae [31]) was 3.12 µg/mL. The Activity (Staphylococcus aureus [32]) was “Active”.
